According to patent US8129398B2 (priority 2008, dated 2012):

These compounds were tested against T1, HIV-integrase (Human immunodeficiency virus type 1 group M subtype B, UniProt P12497) (assay: HIV-Integrase Inhibition Activity (SPA bead integration assay with P33 labeled target DNA)). Details: recombinant integrase, class symbols; read-out: in vitro activity.
T1 construct: Recombinant integrase (0.26 ng) was incubated with the beads
Type: biochemical
Method in brief: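 Strand integration read as bead-proximity CPM after P33 target DNA (0.1 fmol) and inhibitor were added to washed integrase–substrate DNA complexes on SPA beads. Enzyme bound 90 min at 37° C; EDTA (10 mM final) terminated reaction; IC50 graded A/B/C.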

Row | SMILES | IC50 [nM]
1 | O=C(NC12CCC(CC1)Cn1c2nc(C(=O)NCc2ccc(F)cc2)c(O)c1=O)C(=O)N1CCC(O)CC1 [Example 63, N-(4-Fluorobenzyl)-3-hydroxy-10-(((4-hydroxy-1-piperidinyl)(oxo)acetyl)amino)-4-oxo-4,6,7,8,9,10-hexahydro-7,10-ethanopyrimido[1,2-a]azepine-2-carboxamide] | < 10
2 | CN(C)C(=O)C(=O)NC12CCC(CC1)Cn1c2nc(C(=O)NCCc2ccccc2Cl)c(O)c1=O [Example 344] | 10 to 100
3 | COc1cc(CNC(=O)c2nc3n(c(=O)c2O)CC2CCC3(NC(=O)C(=O)N(C)C)CC2)ccc1F [Example 133, N′-(2-((4-Fluoro-3-methoxybenzyl)carbamoyl)-3-hydroxy-4-oxo-6,7,8,9-tetrahydro-7,10-ethanopyrimido[1,2-a]azepin-10(4H)-yl)-N,N-dimethylethanediamide] | < 10
4 | Cc1cc(C(=O)NC23CCC(CC2)Cn2c3nc(C(=O)NCc3ccc(F)cc3)c(O)c2=O)nn1C [Example 24, 10-(((1,5-Dimethyl-1H-pyrazol-3-yl)carbonyl)amino)-N-(4-fluorobenzyl)-3-hydroxy-4-oxo-4,6,7,8,9,10-hexahydro-7,10-ethanopyrimido[1,2-a]azepine-2-carboxamide] | < 10
5 | Cc1cc(CNC(=O)c2nc3n(c(=O)c2O)CC2CCC3(NC(=O)C(=O)N(C)C)CC2)ccc1F [Example 113, N′-(2-((4-Fluoro-3-methylbenzyl)carbamoyl)-3-hydroxy-4-oxo-6,7,8,9-tetrahydro-7,10-ethanopyrimido[1,2-a]azepin-10(4H)-yl)-N,N-dimethylethanediamide] | < 10
6 | Cc1c(F)cc(Br)c(CNC(=O)c2nc3n(c(=O)c2O)CC2CCC3(N(C)C(=O)C(=O)N(C)C)CC2)c1Br [Example 162, N-(2-((2,6-Dibromo-4-fluoro-3-methylbenzyl)carbamoyl)-3-hydroxy-4-oxo-6,7,8,9-tetrahydro-7,10-ethanopyrimido[1,2-a]azepin-10(4H)-yl)-N,N′,N′-trimethylethanediamide] | < 10
7 | CC(=O)NC12CCC(CC1)Cn1c2nc(C(=O)NCc2ccc(F)cc2)c(O)c1=O [Example 20, 10-(Acetylamino)-N-(4-fluorobenzyl)-3-hydroxy-4-oxo-4,6,7,8,9,10-hexahydro-7,10-ethanopyrimido[1,2-a]azepine-2-carboxamide] | < 10
8 | CC1(C)[C@@H]2CC[C@@]1(C)[C@@H](N)c1nc(C(=O)NCc3ccc(F)cc3)c(O)c(=O)n1C2 [Example 182, (7S,10R,11R)-11-Amino-N-(4-fluorobenzyl)-3-hydroxy-10,12,12-trimethyl-4-oxo-6,7,8,9,10,11-hexahydro-4H-7,10-methanopyrimido[1,2-a]azocine-2-carboxamide] | > 100
9 | CC(C)S(=O)(=O)N1CCCC1C(=O)NC12CCC(CC1)Cn1c2nc(C(=O)NCc2ccc(F)cc2)c(O)c1=O (stereo not shown) [Example 402] | < 10
10 | CN(C)C(=O)C(=O)NC12CCC(CC1)Cn1c2nc(C(=O)NCc2ccc(Cl)c(Cl)c2)c(O)c1=O [Example 372] | < 10
11 | CN(C)C(=O)C(=O)NC12CCC(CC1)Cn1c2nc(C(=O)NCCc2ccc(S(N)(=O)=O)cc2)c(O)c1=O [Example 351] | > 100
12 | CN(C)C(=O)C(=O)NC12CCC(CC1)Cn1c2nc(C(=O)NCc2ccc(F)c(C(F)F)c2)c(O)c1=O [Example 124, N′-(2-((3-(Difluoromethyl)-4-fluorobenzyl)carbamoyl)-3-hydroxy-4-oxo-6,7,8,9-tetrahydro-7,10-ethanopyrimido[1,2-a]azepin-10(4H)-yl)-N,N-dimethylethanediamide] | < 10
13 | CN(C)C(=O)C(=O)NC12CCC(CC1)n1c2nc(C(=O)NCc2ccc(F)cc2)c(O)c1=O [Example 16, Ethanediamide, N′-[2-[[[(4-fluorophenyl)methyl]amino]carbonyl]-7,8-dihydro-3-hydroxy-4-oxo-6,9-ethano-4H-pyrido[1,2-a]pyrimidin-9(6H)-yl]-N,N-dimethyl-] | < 10
